The NIST ThermoML archive (doi:10.1021/je8007167)
Values joined by “and” are separate entries in the source; they are usually repeats but may differ in a detail not shown here. Equal values may be shown once. Numbers after ± are expanded uncertainties.

Settings: Crystal, Torsion effusion method

[Cl][Al]([Cl])[Cl] [aluminum chloride]
vapor or sublimation pressure (321 K): 0.00017 ± 7.1e-05 kPa
vapor or sublimation pressure (323 K): 0.000234 ± 7.4e-05 kPa
vapor or sublimation pressure (327 K): 0.00038 ± 9.1e-05 kPa
vapor or sublimation pressure (329 K): 0.000525 ± 9.3e-05 kPa and 0.000513 ± 9.2e-05 kPa
vapor or sublimation pressure (330 K): 0.00055 ± 0.0001 kPa
vapor or sublimation pressure (333 K): 0.000676 ± 0.00016 kPa
vapor or sublimation pressure (334 K): 0.000891 ± 0.00027 kPa
vapor or sublimation pressure (336 K): 0.001023 ± 0.00032 kPa
vapor or sublimation pressure (338 K): 0.001622 ± 0.0004 kPa
vapor or sublimation pressure (339 K): 0.001622 ± 0.00048 kPa and 0.001585 ± 0.00048 kPa
vapor or sublimation pressure (340 K): 0.002089 ± 0.00056 kPa and 0.001862 ± 0.00055 kPa
vapor or sublimation pressure (342 K): 0.002455 ± 0.00068 kPa
vapor or sublimation pressure (343 K): 0.002951 ± 0.00065 kPa
vapor or sublimation pressure (344 K): 0.003388 ± 0.00081 kPa
vapor or sublimation pressure (345 K): 0.003631 ± 0.0008 kPa and 0.003715 ± 0.0008 kPa
vapor or sublimation pressure (346 K): 0.003981 ± 0.0011 kPa
vapor or sublimation pressure (347 K): 0.004898 ± 0.0012 kPa and 0.004266 ± 0.0011 kPa
vapor or sublimation pressure (348 K): 0.004786 ± 0.0011 kPa and 0.00537 ± 0.0011 kPa
vapor or sublimation pressure (349 K): 0.00631 ± 0.0015 kPa
vapor or sublimation pressure (350 K): 0.006761 ± 0.0012 kPa
vapor or sublimation pressure (351 K): 0.006761 ± 0.002 kPa and 0.006457 ± 0.002 kPa
vapor or sublimation pressure (352 K): 0.008318 ± 0.0019 kPa
vapor or sublimation pressure (353 K): 0.008318 ± 0.0017 kPa and 0.008913 ± 0.0017 kPa
vapor or sublimation pressure (354 K): 0.01072 ± 0.0022 kPa and 0.00912 ± 0.0023 kPa
vapor or sublimation pressure (355 K): 0.01202 ± 0.0021 kPa and 0.01175 ± 0.0021 kPa
vapor or sublimation pressure (356 K): 0.01175 ± 0.0036 kPa
vapor or sublimation pressure (358 K): 0.01445 ± 0.0036 kPa and 0.01585 ± 0.0035 kPa
vapor or sublimation pressure (362 K): 0.02399 ± 0.0058 kPa
vapor or sublimation pressure (363 K): 0.0263 ± 0.0057 kPa
vapor or sublimation pressure (366 K): 0.03715 ± 0.0084 kPa
vapor or sublimation pressure (368.5 K): 0.04898 ± 0.011 kPa
vapor or sublimation pressure (369 K): 0.05129 ± 0.011 kPa
vapor or sublimation pressure (372 K): 0.06918 ± 0.018 kPa
vapor or sublimation pressure (373 K): 0.08511 ± 0.018 kPa
vapor or sublimation pressure (376.5 K): 0.1175 ± 0.019 kPa
vapor or sublimation pressure (378 K): 0.1288 ± 0.019 kPa

[F][Al]([F])[F] [aluminum fluoride]
vapor or sublimation pressure (956 K): 0.000105 ± 3.5e-05 kPa
vapor or sublimation pressure (960 K): 0.000132 ± 3.9e-05 kPa
vapor or sublimation pressure (968 K): 0.000209 ± 2.5e-05 kPa
vapor or sublimation pressure (970 K): 0.000209 ± 2.4e-05 kPa
vapor or sublimation pressure (974 K): 0.000209 ± 3.3e-05 kPa
vapor or sublimation pressure (975 K): 0.000209 ± 3.9e-05 kPa
vapor or sublimation pressure (977 K): 0.000263 ± 3.8e-05 kPa
vapor or sublimation pressure (982 K): 0.000316 ± 4.3e-05 kPa
vapor or sublimation pressure (985 K): 0.000363 ± 4.8e-05 kPa
vapor or sublimation pressure (987 K): 0.000363 ± 5.4e-05 kPa
vapor or sublimation pressure (991 K): 0.000417 ± 6.9e-05 kPa and 0.000468 ± 6.9e-05 kPa
vapor or sublimation pressure (994 K): 0.000468 ± 8e-05 kPa
vapor or sublimation pressure (998 K): 0.000575 ± 8.2e-05 kPa
vapor or sublimation pressure (1001 K): 0.000631 ± 8.5e-05 kPa
vapor or sublimation pressure (1002 K): 0.000676 ± 8.8e-05 kPa
vapor or sublimation pressure (1007 K): 0.000724 ± 0.0001 kPa
vapor or sublimation pressure (1010 K): 0.000813 ± 0.00012 kPa
vapor or sublimation pressure (1013 K): 0.000933 ± 0.00015 kPa
vapor or sublimation pressure (1014 K): 0.000933 ± 0.00015 kPa
vapor or sublimation pressure (1018 K): 0.001122 ± 0.00014 kPa
vapor or sublimation pressure (1022 K): 0.001259 ± 0.00018 kPa
vapor or sublimation pressure (1023 K): 0.001259 ± 0.00017 kPa
vapor or sublimation pressure (1026 K): 0.001413 ± 0.0002 kPa
vapor or sublimation pressure (1029 K): 0.001549 ± 0.0002 kPa
vapor or sublimation pressure (1033 K): 0.00182 ± 0.00024 kPa
vapor or sublimation pressure (1036 K): 0.001862 ± 0.00029 kPa
vapor or sublimation pressure (1040 K): 0.002188 ± 0.00027 kPa
vapor or sublimation pressure (1043 K): 0.002512 ± 0.00033 kPa
vapor or sublimation pressure (1048 K): 0.002754 ± 0.00032 kPa
vapor or sublimation pressure (1052 K): 0.003162 ± 0.00038 kPa and 0.003236 ± 0.00038 kPa
vapor or sublimation pressure (1053 K): 0.003236 ± 0.00044 kPa
vapor or sublimation pressure (1059 K): 0.00389 ± 0.00058 kPa
vapor or sublimation pressure (1062 K): 0.004467 ± 0.00055 kPa
vapor or sublimation pressure (1063 K): 0.004365 ± 0.00054 kPa
vapor or sublimation pressure (1066 K): 0.005012 ± 0.00067 kPa
vapor or sublimation pressure (1070 K): 0.00537 ± 0.00073 kPa
vapor or sublimation pressure (1071 K): 0.005754 ± 0.0007 kPa
vapor or sublimation pressure (1074 K): 0.00631 ± 0.0008 kPa
vapor or sublimation pressure (1078 K): 0.006918 ± 0.00086 kPa
vapor or sublimation pressure (1083 K): 0.008128 ± 0.00097 kPa and 0.008318 ± 0.00097 kPa
vapor or sublimation pressure (1086 K): 0.008913 ± 0.0011 kPa
vapor or sublimation pressure (1089 K): 0.009333 ± 0.0013 kPa
vapor or sublimation pressure (1093 K): 0.01072 ± 0.0012 kPa
vapor or sublimation pressure (1097 K): 0.0123 ± 0.0016 kPa
vapor or sublimation pressure (1098 K): 0.01202 ± 0.0016 kPa
vapor or sublimation pressure (1100 K): 0.01288 ± 0.0015 kPa
vapor or sublimation pressure (1104 K): 0.01479 ± 0.0019 kPa
vapor or sublimation pressure (1107 K): 0.01549 ± 0.0019 kPa
vapor or sublimation pressure (1109 K): 0.01698 ± 0.0019 kPa
vapor or sublimation pressure (1112 K): 0.0182 ± 0.0024 kPa
vapor or sublimation pressure (1113 K): 0.01862 ± 0.0023 kPa
